# The supplement of paper PMC11061612
# Assays:
# [1] = system: SLVL (B-Cell Non-Hodgkin's Lymphoma); assay: combination Emax (second highest fraction inhibited in the dose matrix, 72 h); higher = more inhibition; extreme values may be limits of the assay
# How it was run: (§1)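 Cell lines in DMEM/F12 or RPMI with 10% FBS were plated in 1536-well plates, held 24 hours at 37°C, 5% CO2, then given two-drug dose matrices for 72 hours (DMSO typically 0.2%). Viability was read by CellTiter-Glo 2.0 luminescence and scaled as inhibition from 0 (vehicle wells) to 1 (blank wells). Combination Emax is the second-highest inhibition in the matrix; Bliss excess is observed combination effect minus expected EA + EB − EA·EB, EA and EB being single-agent effects.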
# [2] = system: MES-SA (Other Solid Carcinomas); assay: as above
# How it was run: as §1
# [3] = system: HCC1143 (Breast Carcinoma); assay: as above
# How it was run: as §1
# [4] = system: SNG-M (Endometrial Carcinoma); assay: as above
# How it was run: as §1
# MSTO-211H (Mesothelioma) = assay: as above
# How it was run: as §1
# [5] = system: 647-V (Bladder Carcinoma); assay: as above
# How it was run: as §1
# [6] = system: MES-SA (Other Solid Carcinomas); assay: Bliss excess, mean over the matrix (fraction); higher = more synergy
# How it was run: as §1
# [7] = system: U-118-MG (Low Grade Glioma); assay: as above
# How it was run: as §1
# [8] = system: D-283MED (Other Solid Carcinomas); assay: as above
# How it was run: as §1
# [9] = system: NCI-H1688 (Small Cell Lung Carcinoma); assay: as above
# How it was run: as §1
# HuO9 (Osteosarcoma) = assay: as above
# How it was run: as §1
# HCC38 (Breast Carcinoma) = assay: as above
# How it was run: as §1
# [10] = system: ETK-1 (Biliary Tract Carcinoma); assay: as above
# How it was run: as §1
# [11] = system: SW948 (Colorectal Carcinoma); assay: as above
# How it was run: as §1
# [12] = system: GDM-1 (Acute Myeloid Leukemia); assay: as above
# How it was run: as §1
# [13] = system: SW48 (Colorectal Carcinoma); assay: as above
# How it was run: as §1
# [14] = system: SKN-3 (Head and Neck Carcinoma); assay: as above
# How it was run: as §1
# EW-22 (Ewing's Sarcoma) = assay: as above
# How it was run: as §1
# [15] = system: RCC10RGB (Kidney Carcinoma); assay: as above
# How it was run: as §1
# [16] = system: NOMO-1 (Acute Myeloid Leukemia); assay: as above
# How it was run: as §1
# 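Wherever Bliss excess, mean over the matrix is given: after 72 h of two-drug dosing.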
SMILES,combination Emax [1],combination Emax [2],combination Emax [3],combination Emax [4],combination Emax (MSTO-211H (Mesothelioma)),combination Emax [5],Bliss excess [6],Bliss excess [7],Bliss excess [8],Bliss excess [9],Bliss excess (HuO9 (Osteosarcoma)),Bliss excess (HCC38 (Breast Carcinoma)),Bliss excess [10],Bliss excess [11],Bliss excess [12],Bliss excess [13],Bliss excess [14],Bliss excess (EW-22 (Ewing's Sarcoma)),Bliss excess [15],Bliss excess [16]
"Cc1c2c(nn1C)CSCc1cc(n(C)n1)CSc1cc(c3ccccc3c1)OCCCc1c(C(=O)O)n(C)c3c-2c(Cl)ccc13 [AZD5991] + C[C@@H]1COCCN1C2=NC(=NC(=C2)C3(CC3)[S@](=N)(=O)C)C4=C5C=CNC5=NC=C4 [AZD6738] (first compound max 1 µM, 7x7, partner max 10 µM)",0.873,0.762,0.827,0.88,0.688,0.92,0.0653,0.0187,-0.0109,0.0406,0.0259,0.0528,0.0015,0.0387,0.0863,-0.0259,0.0678,0.0236,0.0332,-0.0006
"Cc1c2c(nn1C)CSCc1cc(n(C)n1)CSc1cc(c3ccccc3c1)OCCCc1c(C(=O)O)n(C)c3c-2c(Cl)ccc13 [AZD5991] + C[C@@H](Nc1cc(F)cc(F)c1)c1cc(C(=O)N(C)C)cc2c(=O)cc(N3CCOCC3)oc12 [AZD8186] (first compound max 1 µM, 7x7, partner max 3 µM)",0.47,0.267,0.342,0.311,0.313,0.802,-0.0381,0.0012,-0.0186,0.0171,0.0127,0.011,-0.0221,-0.0498,0.0355,-0.0271,-0.0606,-0.0396,-0.0349,0.0361
"Cc1c2c(nn1C)CSCc1cc(n(C)n1)CSc1cc(c3ccccc3c1)OCCCc1c(C(=O)O)n(C)c3c-2c(Cl)ccc13 [AZD5991] + Cc1cc2ncnn2cc1Nc1ncc2c(n1)n(C1CCOCC1)c(=O)n2C [AZD7648] (first compound max 1 µM, 7x7, partner max 10 µM)",0.487,0.221,0.267,0.299,0.194,0.719,0.0111,-0.0098,-0.0158,-0.0093,-0.018,-0.0418,-0.0466,-0.0328,-0.0295,-0.036,-0.032,-0.041,0.0033,0.0486
"Cc1c2c(nn1C)CSCc1cc(n(C)n1)CSc1cc(c3ccccc3c1)OCCCc1c(C(=O)O)n(C)c3c-2c(Cl)ccc13 [AZD5991] + Cn1cnc2c(F)c(Nc3ccc(Br)cc3Cl)c(C(=O)NOCCO)cc21 [Selumetinib] (first compound max 1 µM, 7x7, partner max 3 µM)",0.47,0.23,0.383,0.233,0.264,0.91,-0.0247,-0.0054,-0.0265,0.0484,-0.0386,-0.0386,-0.005,-0.0388,0.0387,0.0102,0.0324,-0.019,0.0528,0.135
"Cc1cc2ncnn2cc1Nc1ncc2c(n1)n(C1CCOCC1)c(=O)n2C [AZD7648] + C=CCn1c(=O)c2cnc(Nc3ccc(N4CCN(C)CC4)cc3)nc2n1-c1cccc(C(C)(C)O)n1 [AZD1775] (first compound max 10 µM, partner max 1 µM)",0.916,0.75,0.603,0.645,0.612,0.52,-0.0182,-0.0041,-0.0959,-0.0094,-0.0298,-0.0124,-0.0144,-0.047,-0.0239,-0.0702,-0.0033,-0.0043,0.0016,0.0204
"Cc1cc2ncnn2cc1Nc1ncc2c(n1)n(C1CCOCC1)c(=O)n2C [AZD7648] + CCN(CCO)CCCOc1ccc2c(Nc3cc(CC(=O)Nc4cccc(F)c4)[nH]n3)ncnc2c1 [AZD2811] (first compound max 10 µM, 7x7, partner max 1 µM)",0.687,0.57,0.403,0.281,0.469,0.262,0.0834,0.0172,0.0609,0.0154,0.051,-0.0383,-0.0025,-0.0979,-0.036,-0.073,-0.0037,-0.0261,0.0069,0.131
"Cc1cc2ncnn2cc1Nc1ncc2c(n1)n(C1CCOCC1)c(=O)n2C [AZD7648] + CN(C)CCCOc1ccc(-c2ccc3ncc4c(c3c2)n(C2CCOCC2)c(=O)n4C)cn1 [AZD0156] (first compound max 10 µM, 7x7, partner max 1 µM)",0.404,0.475,0.242,0.205,0.33,0.222,0.0228,-0.0217,-0.0339,0.0029,0.0522,0.0157,-0.0041,0.0122,-0.0215,-0.0183,-0.0064,0.0335,-0.0735,0.0371
